Columns and labels:
[1] = tested on: human colorectal adenocarcinoma NCI-H716 cell lines; assay: In-vivo efficacy in NCI-H716 CDX models; parameters: species or system mouse; conditions: i.v., QW*3, NCI-H716 CDX
Text: (§1) To verify the in-vivo efficacy of the anti-human cMet ADC drugs and evaluate the anti-tumor effects of the tested drugs in female Balb/c Nude mouse models subjected to subcutaneous xenografts, 5-6 week old female Balb/c Nude mice (Vital River) are purchased, human non-small cell lung cancer NCI-H358 cells that have grown to the logarithmic growth phase are digested with EDTA and then resuspended with PBS, each mouse is subcutaneously inoculated with 5*10^6 cells, and when the tumor grows to a size of […], intravenous administration is performed once a week with 1 mg/kg or 3 mg/kg each time.
A similar method is used to evaluate the anti-tumor effects of cMet ADC test drugs in female BALB/c nude mouse animal models subjected to subcutaneous xenografts of human colorectal adenocarcinoma NCI-H716 cell lines.

SW480 cells = assay: In-vitro killing activity Test 1 (CCK8), SW480; type: cell-based, human; conditions: 7 days, read-out: EC50 of ADC killing (nM) SW480
Text: (§2) Tumor cells in a good growth status are collected by digestion and centrifugation, SW480 (purchased from ATCC, Cat. No. CCL-228), NCI-H358 (purchased from ATCC, Cat. No. CRL-5807), LS1034 cells (Nanjing Cobioer Biosciences Co., Ltd., Cat. No. CBP60013), NCI-H716 (purchased from ATCC, Cat. No. CCL-251) cells are directly collected by centrifugation, the foregoing cells are all resuspended with RPMI 1640+5% FBS+Ps, and are counted, and 5000 (LS1034 and NCI-H716) or 3000 (SW480 and NCI-H358) cells are plated in each well in a volume of 100 uL; ADCs to be tested are diluted separately with resuspension media corresponding to the foregoing 3 types of cells, starting at 300 µg/mL ([…]) for 3-fold dilution with 11 concentration points, and added into a plate with 100 µL/well, to make the ADCs have a final concentration of 150 µg/mL, for incubation at 37° C. for 5 days (LS1034 and NCI-H358) or 7 days (NCI-H716 and SW480); after the incubation is completed, CCK8 is added with 20 µL/well, for a reaction for 1-3 hours; and values are read out at 450 nm by a microplate reader and imported into Graphpad Prism for curve-fitting.

NCI-H716 cells [2] = assay: Flow cell affinity of ADCs, NCI-H716; type: binding, human; conditions: flow cytometry
[3] = tested on: human colon cancer SW480 cell lines; assay: In-vivo efficacy in SW480 CDX models; parameters: species or system mouse; conditions: 5 mg/kg, i.v., QW*2, SW480 CDX
Text: as §1
A similar method is used to evaluate the anti-tumor effects of anti-cMet ADC test drugs in female BALB/c nude mouse animal models subjected to subcutaneous xenografts of human colon cancer SW480 cell lines.

NCI-H716 cells [4] = assay: In-vitro killing activity Test 1 (CCK8), NCI-H716; type: cell-based, human; conditions: 7 days, read-out: EC50 of ADC killing (nM) NCI-H716
Text: as §2

h.cMet-ECD-His [5] = molecular target: T1, h.cMet-ECD-His (Homo sapiens, UniProt P08581); assay: ELISA protein affinity of cMET antibodies before and after conjugating into ADCs; type: binding
T1 construct: a human cMet ectodomain recombinant protein (Human HGF R/c-MET Protein, His Tag); purchased Acrobiosystems Co., Ltd. / ACRO Biosystems MET-H5227
Protocol: Proteins anti-His-Rabbit Fc are coated with the CBS to […], and are blocked with 2% BSA (in PBS) at 37° C. for 2 hours, h.cMet-ECD-His of […] is added for incubation at 37° C. for 2 hours, after 2 hours, antibodies to be tested or ADCs that are gradiently diluted (starting at […] for 3-fold dilution with 11 concentration points) are added for incubation at 37° C. for 2 hours, after 2 hours, HRP-labeled anti-human specific secondary antibodies (Jackson, 115-035-164) are added for incubation at 37° C. for 1 hour, a TMB substrate is added for color development, and after the color development is stopped using HCl of 2M, final products are added into a machine to read out absorbance values at […].

[6] = tested on: human non-small cell lung cancer NCI-H358 cells; assay: In-vivo efficacy in NCI-H358 CDX models (Test 1); parameters: species or system mouse; conditions: 1 mg/kg, i.v., QW*3, NCI-H358 CDX
Text: as §1

LS1034 cells [7] = assay: Flow cell affinity of ADCs, LS1034; type: binding, human; conditions: flow cytometry
LS1034 cells [8] = assay: In-vitro killing activity Test 1 (CCK8), LS1034; type: cell-based, human; conditions: 5 days, read-out: EC50 of ADC killing (nM) LS1034
Text: as §2

NCI-H358 cells [9] = assay: In-vitro killing activity Test 1 (CCK8), NCI-H358; type: cell-based, human; conditions: 5 days, read-out: EC50 of ADC killing (nM) NCI-H358
Text: as §2

NCI-H358 cells [10] = assay: Flow cell affinity of ADCs, NCI-H358; type: binding, human; conditions: flow cytometry
NCI-H69 cells = assay: Flow cell affinity of ADCs, NCI-H69; type: binding, human; conditions: flow cytometry
h.cMet-ECD-His [11] = molecular target: T1, h.cMet-ECD-His; assay: ForteBio dynamic affinity to h.cMet-ECD-His; type: binding; conditions: ProA sensor
Protocol: Dynamic affinities of the humanized antibodies are assayed through ForteBio. Experimental steps are as follows: 1. sensor preparation: taking out a ProA sensor, and pre-wetting the sensor with a PBST diluent (pH 7.4) for 10 min; 2. sample dilution: separately diluting antibodies that need to be solidified to 5 μg/ml, antigens h.cMet-ECD-His (Acrobiosystems Co., Ltd., Cat. No.: MET-H5227) starting at 500 nM for 2-fold dilution with 5 concentration points and a 0 concentration point set; 3. setting a program, putting a sensor plate and a sample plate away, starting the program, and the sensor being regenerated with a glycine solution of 20 mM (pH 1.7); 4. using Octet analysis software to analyse data.

MKN45 cells [12] = assay: Endocytic activity on MKN45 cells; type: cell-based, human; conditions: 10 μg/mL, 37° C.
Protocol: MKN45 cells are collected by trypsin digestion and centrifugation, incubated with humanized antibodies to be detected of a concentration of 10 μg/mL at 4° C. for 1 hour, and washed 3 times with the PBS, the cells are resuspended with DMEM+10% FBS that has been pre-warmed at 37° C., […], after 3 times of washing with a pre-cooled PBS, 1.2 uL of anti-human APC fluorescent secondary antibodies are added for incubation at 4° C. for 0.5 hours, and after three times of washing with the PBS, the cells are resuspended and added into a machine. Endocytosis rates are calculated according to the following formula: endocytosis rate (%)= ? 1−(an average fluorescence value of a test sample at this time point−an average fluorescence value of a negative control sample at this time point)/(an average fluorescence value of the test sample at 0 hour−an average fluorescence value of the negative control sample at 0 hour) ? * 100.

[13] = molecular target: T2, HGF ligand on MKN45 cells (Homo sapiens, UniProt P08581); assay: FACS competition of humanized antibodies with HGF ligand on MKN45 cells; type: binding; conditions: HGF-His-biotin 50 ng/ml, MKN45
T2 construct: MKN45 cells expressing c-MET antigens; endogenous in cells; host or cells: MKN45
Protocol: (§3) Therefore, competitive actions of the humanized antibodies on ligand binding and actions of inhibiting HGF-induced ERK phosphorylation are detected.
(§4) MKN45 cells are collected by trypsin digestion and centrifugation, and are washed three times with a pre-cooled PBS, the cells are resuspended with 1% BSA (in PBS), and are plated into a 96-well conical bottom plate with 2^10^5 cells (50 ul) per well, anti-cMet humanized antibodies are gradiently diluted with 1% BSA, starting at 15 μg/ml to a final concentration from 5 μg/ml with a 3-fold dilution gradient and 8 dilution points, 50 ul diluted antibodies are mixed well with the cells in the conical bottom plate, HGF-His-biotin (from Chengdu NB Biolab Co., Ltd.) is diluted with 1% BSA to 150 ng/ml, and is added into the well plate with 50 ul/well, to make a final concentration of ligands of 50 ng/ml, for incubation at 4° C. for 1 hour after fully mixing, after three times of washing with the pre-cooled PBS, 100 ul of 1% BSA (containing 1 uL anti-biotin PE fluorescent secondary antibodies, BioLegend, Cat. No. 405204) is added to each well for incubation at 4° C. for 0.5 hours, and after three times of washing with the pre-cooled PBS, the cells are resuspended and detected by a flow cytometer (Beckman, cytoflex).

[14] = molecular target: T3, (Homo sapiens, UniProt P08581); assay: as above; type: binding; conditions: HGF-His-biotin 50 ng/ml
T3 construct: MKN45 cells expressing c-MET antigens; endogenous in cells; host or cells: MKN45
Protocol: as §3, §4

MKN45 cells [15] = assay: Flow affinity of humanized antibodies to MKN45 cells; type: binding, human; conditions: flow cytometry
Protocol: MKN45 cells (Nanjing Cobioer Biosciences Co., Ltd., CBP60488) are collected by trypsin digestion and centrifugation, and are washed three times with a pre-cooled PBS, the cells are resuspended with 1% BSA (in the PBS), and are plated into a 96-well conical bottom plate with 2^10^5 cells (50 ul) per well, anti-cMet humanized antibodies to be tested are gradiently diluted with 1% BSA starting at 20 μg/ml with a 4-fold dilution gradient and 8 concentration points, 50 ul diluted antibodies are mixed well with the cells in the conical bottom plate for incubation at 4° C. for 1 hour, after three times of washing with the pre-cooled PBS, 100 ul of 1% BSA (containing 1 uL anti-human APC fluorescent secondary antibodies, BioLegend, Cat. No. 410712) is added to each well for incubation at 4° C. for 0.5 hours, and after three times of washing with the pre-cooled PBS, the cells are resuspended for detection by a flow cytometer (Beckman, cytoflex).

h.cMet (cMet-ECD-his) = molecular target: T4, h.cMet (cMet-ECD-his) (Homo sapiens, UniProt P08581); assay: ELISA affinity of humanized antibodies to human cMet; type: binding; conditions: cMet-ECD-his coated
T4 construct: a human cMet ectodomain recombinant protein (Human HGF R/c-MET Protein, His Tag); purchased Acrobiosystems Co., Ltd. / ACRO Biosystems MET-H5227
Text: […]

[16] = tested on: cynoMet (cyno.cMet-ECD-His); assay: ELISA affinity of humanized antibodies to cyno Met; type: binding; conditions: cyno.cMet-ECD-His captured
Text: […]

T1 sequence (P08581 25-932 limits assumed): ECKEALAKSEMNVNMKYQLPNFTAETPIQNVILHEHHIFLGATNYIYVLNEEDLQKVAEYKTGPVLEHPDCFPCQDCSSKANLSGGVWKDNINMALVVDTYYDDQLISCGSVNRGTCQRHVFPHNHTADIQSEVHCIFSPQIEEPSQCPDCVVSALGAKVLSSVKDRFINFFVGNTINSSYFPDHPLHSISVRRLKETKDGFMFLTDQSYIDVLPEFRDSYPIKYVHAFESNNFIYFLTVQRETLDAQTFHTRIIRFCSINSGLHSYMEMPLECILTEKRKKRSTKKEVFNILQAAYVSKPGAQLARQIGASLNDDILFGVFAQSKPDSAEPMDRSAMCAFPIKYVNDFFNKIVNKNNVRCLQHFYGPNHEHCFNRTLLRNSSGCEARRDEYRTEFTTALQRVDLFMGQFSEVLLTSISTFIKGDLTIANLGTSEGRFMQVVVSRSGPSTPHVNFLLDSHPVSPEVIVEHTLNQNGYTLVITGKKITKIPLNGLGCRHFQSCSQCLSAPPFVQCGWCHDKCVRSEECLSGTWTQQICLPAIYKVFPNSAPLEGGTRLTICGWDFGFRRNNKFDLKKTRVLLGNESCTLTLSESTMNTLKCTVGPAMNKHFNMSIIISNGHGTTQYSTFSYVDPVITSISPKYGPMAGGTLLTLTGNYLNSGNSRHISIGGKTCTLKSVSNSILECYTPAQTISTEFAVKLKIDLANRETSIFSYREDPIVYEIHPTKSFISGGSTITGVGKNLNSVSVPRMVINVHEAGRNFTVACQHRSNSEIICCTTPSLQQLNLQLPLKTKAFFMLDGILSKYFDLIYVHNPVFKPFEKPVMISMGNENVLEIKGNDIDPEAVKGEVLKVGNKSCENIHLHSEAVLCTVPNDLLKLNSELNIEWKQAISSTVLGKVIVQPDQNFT
T2 sequence (P08581 25-1390): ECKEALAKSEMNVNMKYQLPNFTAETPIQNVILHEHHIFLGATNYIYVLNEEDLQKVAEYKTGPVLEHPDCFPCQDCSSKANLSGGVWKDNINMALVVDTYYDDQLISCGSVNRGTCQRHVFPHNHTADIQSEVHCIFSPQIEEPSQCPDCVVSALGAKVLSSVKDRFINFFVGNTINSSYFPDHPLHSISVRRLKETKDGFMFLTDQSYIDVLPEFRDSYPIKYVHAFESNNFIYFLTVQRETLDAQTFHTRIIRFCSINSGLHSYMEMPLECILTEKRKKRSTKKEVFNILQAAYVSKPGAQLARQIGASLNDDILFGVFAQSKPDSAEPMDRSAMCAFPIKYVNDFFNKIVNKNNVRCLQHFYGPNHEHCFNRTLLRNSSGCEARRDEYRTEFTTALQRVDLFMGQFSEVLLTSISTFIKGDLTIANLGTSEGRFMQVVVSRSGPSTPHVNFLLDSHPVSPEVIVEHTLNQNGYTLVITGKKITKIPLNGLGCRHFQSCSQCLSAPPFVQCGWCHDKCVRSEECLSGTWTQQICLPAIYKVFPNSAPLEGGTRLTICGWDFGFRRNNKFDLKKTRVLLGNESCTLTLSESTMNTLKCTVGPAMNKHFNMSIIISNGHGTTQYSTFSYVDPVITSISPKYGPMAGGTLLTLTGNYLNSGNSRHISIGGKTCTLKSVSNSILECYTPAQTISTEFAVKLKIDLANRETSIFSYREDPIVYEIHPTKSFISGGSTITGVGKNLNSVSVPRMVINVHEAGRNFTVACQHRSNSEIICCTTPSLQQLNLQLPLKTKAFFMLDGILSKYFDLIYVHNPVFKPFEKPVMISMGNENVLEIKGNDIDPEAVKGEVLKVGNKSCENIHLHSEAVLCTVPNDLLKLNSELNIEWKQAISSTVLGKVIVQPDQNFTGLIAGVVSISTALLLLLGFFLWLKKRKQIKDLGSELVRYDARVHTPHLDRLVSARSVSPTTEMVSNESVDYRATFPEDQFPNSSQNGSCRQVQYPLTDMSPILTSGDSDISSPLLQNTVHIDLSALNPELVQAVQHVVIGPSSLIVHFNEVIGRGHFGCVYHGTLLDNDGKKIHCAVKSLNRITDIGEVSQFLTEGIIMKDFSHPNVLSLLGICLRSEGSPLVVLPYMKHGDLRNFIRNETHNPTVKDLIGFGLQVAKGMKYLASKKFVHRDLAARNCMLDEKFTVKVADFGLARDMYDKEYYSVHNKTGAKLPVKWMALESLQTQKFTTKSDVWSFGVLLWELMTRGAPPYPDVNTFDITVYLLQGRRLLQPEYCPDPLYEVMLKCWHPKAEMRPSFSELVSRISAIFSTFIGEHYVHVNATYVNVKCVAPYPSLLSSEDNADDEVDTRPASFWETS
T3 sequence (P08581 25-1390): as above
T4 sequence (P08581 25-932 limits assumed): as the sequence (P08581 25-932 limits assumed) above

## ABT700-Vc-MMAE (DAR4): ADC of control antibody ABT700 conjugated to vc-MMAE (CAS No.: 646502-53-6), DAR value 4.0 [reference compound]
[1]; 0.3 mg/kg
  TGI (%) on Day 14: 1.7%
[1]; 1 mg/kg
  TGI (%) on Day 14: 3.5%
SW480 cells
  EC50: 71.6 nM
NCI-H716 cells [2]
  EC50: 11.6 nM
  NCI-H716 Maximum signal value: 3737
[3]
  TGI (%) on Day 15: 15.06%
NCI-H716 cells [4]
  EC50: 288 nM

## ABT700-Vc-MMAE (DAR9.7): ADC of control antibody ABT700 conjugated to vc-MMAE (CAS No.: 646502-53-6), DAR value 9.7 [reference compound]
h.cMet-ECD-His [5]
  EC50: 2.432 µg/mL
[6]
  TGI (%) on Day 14: 84.6%
LS1034 cells [7]
  EC50: 0.852 nM
  LS1034 Maximum signal value: 8960
LS1034 cells [8]
  EC50: 53.7 nM
NCI-H358 cells [9]
  EC50: > 10000 nM
NCI-H358 cells [10]
  EC50: 0.917 nM
  NCI-H358 Maximum signal value: 32386
NCI-H69 cells
  EC50: 0.212 nM
  NCI-H69 Maximum signal value: 8214

## ABT700: control anti-c-Met antibody with a sequence from KEGG, ID: D11307 [reference compound]
h.cMet-ECD-His [11]
  ka: 169000 M⁻¹ s⁻¹
  kdis: 3.91e-07 s⁻¹
h.cMet-ECD-His [5]
  EC50: 0.005257 µg/mL
MKN45 cells [12]; 1 h
  Endocytosis rate %: 7.9%
MKN45 cells [12]; 2 h
  Endocytosis rate %: 19.2%
MKN45 cells [12]; 4 h
  Endocytosis rate %: 44.5%
[13]
  Maximum inhibition rate %: 75%
[14]
  MKN45 IC50: 0.167 µg/mL
MKN45 cells [15]
  MKN45 EC50: 0.1004 µg/mL
MKN45 cells [15]; MKN45
  Maximum signal value: 70415
h.cMet (cMet-ECD-his)
  h.cMet EC50: 0.004148 µg/mL
[16]
  cynoMet EC50: 0.1434 µg/mL
